Test results published in patent US8642640B2, “1-phenylpyrrole derivatives” (Exelixis, Inc., priority 2008, dated 2014).

Key:
[1] = Plasma concentration after intragastric administration to cynomolgus monkey (Test Example 2); format: in vivo; settings: male cynomolgus monkey, 3 mg/kg intragastric in 0.5% MC, plasma, LC-MS/MS; for AUC, area under the plasma concentration versus time curve: noncompartment model; for Cmax: po, read-out: Cmax, maximum concentration
Experimental: Cynomolgus monkey (male) was used, and it was fasted from the day before administration of the test compound.
Administration samples were prepared by adding a 0.5% MC (methyl cellulose) solution to the Test Compound, so that the dose becomes 3 mg/2 mL/kg. Each of the administration samples was administered intragastrically to the cynomolgus monkey by using a tube. After the samples were administered, approximately 5 mL of 0.5% MC was administered. For each of the administration samples, a group of two cynomolgus monkeys was administered.
With respect to collection of blood, it was conducted by collecting approximately 0.5 mL of blood from crotch vein using a glass syringe treated with heparin, before administration, and 30 minutes, 1, 2, 4, 6, 8, 24 and 48 hours after administration. Blood was centrifuged (1,700×g, 15 min, 4° C.) to obtain plasma. Plasma was stored in a freezer (−20° C.) until pretreatment.
Preparation of standard solution and internal standard (IS) solution: Each of the Test Compounds was dissolved in DMSO (dimethyl sulfoxide) to prepare a solution of 10 mM each. Each of the compound solution was diluted with acetonitrile, and thus standard solution was prepared. Further, niflumic acid (Wako Pure Chemical Industries, Ltd.) was dissolved in DMSO at the concentration of 2 mM, followed by dilution with acetonitrile to prepare an IS solution of 2 μM.
Pretreatment of plasma samples: 20 μL of plasma sample was collected, and then 25 μL of purified water, 100 μL of acetonitrile, and 100 μL of methanol was added. For the preparation of a calibration curve, 25 μL of purified water, 20 μL of each of the standard solutions (acetonitrile solution), 80 μL of acetonitrile, and 100 μL of methanol were added to 20 μL of blank plasma. 40 μL of the acetonitrile solution of IS was added to all of the samples, and then the samples were stirred, filtered by suction using Captiva filter plate (Varian, Inc.), and then the filtrate was used as the sample for LC-MS/MS analysis.
Quantitative Determination of Test Compound: Concentration in plasma was analyzed by LC-MS/MS method for each Test Compound.
Analysis: Pharmacokinetic parameter was calculated from concentration of each of the drugs in plasma, by using WinNonlin Professional (Ver. 4.0.1, Pharsight Corporation). Here, Noncompartment model was used as the model for parameter calculation.

[2] = target: T1, human mineralocorticoid receptor (hMR) (Homo sapiens, UniProt P08235); experiment: GAL4-hMR-LBD luciferase reporter assay in HEK293 cells with 1 nM aldosterone (Test Example 1); format: cell-based; settings: for Emax: HEK293, read-out: Imax; for IC50: concentration showing Imax/2, HEK293, GAL4-hMR-LBD, 1 nM aldosterone, overnight, read-out: ICmax50;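 on Imax: 0% is DMSO-only control and 100% is 1 nM aldosterone alone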
T1 construct: expressed in transfected cells; host or cells: HEK293
T1 sequence (P08235 726-964 limits assumed): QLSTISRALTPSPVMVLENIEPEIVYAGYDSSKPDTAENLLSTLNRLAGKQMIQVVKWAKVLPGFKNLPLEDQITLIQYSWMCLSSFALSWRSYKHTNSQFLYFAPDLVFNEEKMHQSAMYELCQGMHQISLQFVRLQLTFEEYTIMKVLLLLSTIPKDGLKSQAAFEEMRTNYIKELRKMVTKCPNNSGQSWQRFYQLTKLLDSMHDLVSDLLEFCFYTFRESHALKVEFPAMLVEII
Experimental: A plasmid pM-hMR-LBD expressing GAL4-hMR receptor, which has a ligand binding domain (LBD, corresponding to approximately 308 amino acids at the carboxy terminus) of human mineralocorticoid receptor (hMR, NM_000901) bonded to a DNA binding domain of yeast transcription factor GAL4 (corresponding to 147 amino acids at the amino terminus), was prepared. Reporter assay was conducted by using a reporter plasmid (such as plasmid pFR-Luc of […] CLONING SYSTEMS) including a luciferase gene, having a sequence (UAS sequence) which binds to the DNA binding domain of GAL4.
The plasmid pM-hMR-LBD and the reporter plasmid as obtained above were gene transferred into renal cell line HEK293 of human fetus by lipofection. On the next day, cells were collected by trypsin treatment, and dispensed with DMEM culture medium containing 5% of FBS treated by activated charcoal, to a white 96-well plate (Costar) with the amount of 95 microliter per well.
The test compounds were used as dissolved in dimethyl sulfoxide at a predetermined concentration, and the test compounds suitably diluted with culture media were added to the cells on the white 96-well plate so that the final concentration becomes 0.1%. […] After the addition, cultivation was carried out overnight.
On the next day, the culture media was removed, and then luciferase substrate (Wako Pure Chemical Industries, Ltd.) was prepared in accordance with the attached document and were added to each well by 50 microliters. Stirring was conducted for approximately 30 minutes, and the amount of luminescence was measured for each well by using Analyst (Molecular Devices), to obtain luciferase activity. A graph which plots relative luciferase activity values, when the luciferase activity value of Control group 1 was taken as 0% and the luciferase activity value of Control group 2 was taken as 100%, for each of the amount of the test compound addition group was made.

| AUC, area under the plasma concentration versus time curve [1] [µg·h/mL] | Cmax [1] [ng/mL] | Emax [2] [%] | IC50 [2] [nM] | SMILES |
| --- | --- | --- | --- | --- |
| 15.11 | 1300 | 91 | 9.6 | Cc1c(C(=O)Nc2ccc(S(C)(=O)=O)cc2)cc(C[C@H](C)O)n1-c1ccc(F)cc1Cl (single isomer, unassigned) [Example 40 - isomer A] |
| 23.86 | 1660 | 95 | 2.7 | Cc1c(C(=O)Nc2ccc(S(C)(=O)=O)cc2)cc(C[C@H](C)O)n1-c1ccc(Cl)cc1OC(F)(F)F (single isomer, unassigned) [Example 42 - isomer B] |
| 14.82 | 1140 | 123 | 5.5 | Cc1c(C(=O)Nc2ccc(S(C)(=O)=O)cc2)cc(C[C@H](C)O)n1-c1ccc(Cl)cc1Cl (single isomer, unassigned) [Example 43 - isomer A] |
| 16.92 | 940 | 98 | 12 | CCc1c(C(=O)Nc2ccc(S(C)(=O)=O)cc2)cc(C[C@H](C)O)n1-c1ccc(F)cc1Cl (single isomer, unassigned) [Example 44 - isomer B] |
| 10.94 | 830 | 124 | 11 | Cc1cc(Cl)ccc1-n1c(CCF)cc(C(=O)Nc2ccc(S(C)(=O)=O)cc2)c1C (single isomer, unassigned) [Example 51 - isomer A, 1-(4-Chloro-2-methylphenyl)-5-(2-fluoroethyl)-2-methyl-N-[4-(methylsulfonyl)phenyl]-1H-pyrrole-3-carboxamide] |
| 0.03 | < 10 | 114 | 14 | Cc1cc(C(=O)Nc2ccc(S(C)(=O)=O)cc2)c(C)n1-c1ccccc1C(F)(F)F [Reference compound A, 1-[2-(trifluoromethyl)phenyl]-2,5-dimethyl-N-[4-(methylsulfonyl)phenyl]-1H-pyrrole-3-carboxamide, reference compound] |
| 0.17 | 10 | 93 | 12 | Cc1cc(C(=O)Nc2ccc(S(C)(=O)=O)cc2)c(C)n1-c1ccc(F)cc1C(F)(F)F [Reference compound B, 1-[4-fluoro-2-(trifluoromethyl)phenyl]-2,5-dimethyl-N-[4-(methylsulfonyl)phenyl]-1H-pyrrole-3-carboxamide, reference compound] |

| SMILES | AUC, area under the plasma concentration versus time curve [1] [µg·h/mL] | Cmax [1] [ng/mL] | Emax [2] [%] | IC50 [2] [nM] |
| --- | --- | --- | --- | --- |
| Cc1c(C(=O)Nc2ccc(S(C)(=O)=O)cc2)cc(CCF)n1-c1ccc(F)cc1OC(F)F (single isomer, unassigned) [Example 54 - isomer A, 1-[2-(Difluoromethoxy)-4-fluorophenyl]-5-(2-fluoroethyl)-2-methyl-N-[4-(methylsulfonyl)phenyl]-1H-pyrrole-3-carboxamide] | 11.41 | 970 | 99 | 6.5 |
